{
  "source": "patent US9763901B2",
  "about": "(priority 2015, dated 2017)",
  "key": {"[1]": {"system": "HCV GT1B Replicon", "assay": "HCV replicon assay (antiviral, luciferase endpoint)", "type": "cell-based, hepatitis C virus", "from_the_text": "(§1) Stable HCV replicons of different genotypes may be used for anti-HCV evaluation. We use the subgenomic HCV replicons of genotype 1a (H77 strain), 1b (Conl strain), and 2a (JFH-1 strain), which are Huh7 human hepatoma cell lines that contains an HCV replicon.\nThe HCV replicon antiviral evaluation assay examines the effects of compounds at six serial dilutions. Human interferon alpha-2b (rIFNα-2b) and/or Sofosbuvir are included in each run as a positive control compound.\n(§2) Briefly, the replicon cells are plated at 5,000 cells/well into 96-well plates that are dedicated for the analysis of cell numbers (cytotoxicity) or antiviral activity. On the following day, samples are diluted with assay media and added to the appropriate wells. Cells are processed 72 hours later when the cells are still sub-confluent. For the luciferase endpoint assay, HCV replicon levels are assessed as replicon-derived L uc activity. The concentration of drug that reduces cell viability is assessed by the fluorometric CytoTox-1 cell proliferation assay (Promega), (expressed as cell numbers). For the qRT-PCR/TaqMan assay, total RNA is extracted from the replicon cells using RNeasy 96 kit (Qiagen) according to the manufacturer's protocol. Real-time RTPCR/TaqMan assays are performed to measure copy numbers of the replicon RNA and cellular ribosomal RNA. Where applicable EC50 (concentration inhibiting HCV replicon by 50%), EC90 (concentration inhibiting HCV replicon by 90%), CC50 (concentration decreasing cell viability by 50%), CC90 (concentration decreasing cell viability by 90%) and SI (selectivity indices: CC50/EC50 and CC90/EC90) values are derived."}, "[2]": {"assay": "Cytotoxicity in HCV replicon cells (CytoTox-1)", "type": "cell-based", "details": "human, Huh7 hepatoma cells containing a subgenomic HCV replicon, In vitro HCV replicon assay, post infection, read-out: CC50 (concentration decreasing cell viability by 50%)", "experimental": "as §1\nas §2, with “Where applicable EC50 (concentration inhibiting HCV replicon by 50%), EC90 (concentration inhibiting HCV replicon by 90%), CC50 (concentration decreasing cell viability by 50%), CC90 (concentration decreasing cell viability by 90%) and SI (selectivity indices: CC50/EC50 and CC90/EC90) values are derived.” left out"}, "[3]": {"assay": "Cytotoxicity in HCVcc assay (CytoTox-1)", "type": "cell-based", "details": "human, Huh7.5 cells infected with cell culture-derived HCV (HCVcc), In vitro HCV cc assay, read-out: CC50 (concentration decreasing cell viability by 50%)", "experimental": "(§3) Huh7.5 cells are grown in Dulbecco's modified essential media (DMEM), 10% fetal bovine serum (FBS), 1% penicillin-streptomycin (pen-strep), 1% Non-essential amino acids (NEAA) in a 5% CO2 incubator at 37° C. Huh7.5 cells are seeded at 1×10^4 cells per well into 96-well plates according to Southern Research Institute standard format. Test articles are serially diluted with DMEM plus 5% FBS. The diluted compound in the amount of 50 μl is mixed with equal volume of cell culture-derived HCV (HCVcc), then applied to appropriate wells in the plate. Human interferon alpha-2b (rIFNα-2b) and/or Sofosbuvir are included as a positive control. After 72 hr incubation at 37° C., the cells are lysed for measurement of luciferase activity using Renilla Luciferase Assay System (Promega) according to manufacturer's instruction. The number of cells in each well is determined by CytoTox-1 reagent (Promega). Test articles are tested at 6 serial dilutions in triplicate to derive, if applicable, EC50 and EC90 (concentration inhibiting HCVcc infectivity by 50% and 90%, respectively), CC50 (concentration decreasing cell viability by 50%) and SI (selectivity index: CC50/EC50) values (Table 1)."}, "[4]": {"system": "cell culture-derived HCV (HCVcc)", "assay": "microbe, parasite or virus in culture", "type": "cell-based, hepatitis C virus", "experimental": "as §3"}},
  "data": [
    {"smiles": "CCCCOc1ccc(CC(=O)NO)cc1", "note": "[Bufexamac]", "values": [
      {"measurement": "anti-hepatitis C activity (in words)", "setting": "[1]; HCV replicon assay", "value": "significant anti-hepatitis C activity"},
      {"measurement": "EC50", "setting": "[1]; Hepatitis C virus, GT1B, 72 h, read-out: EC50 (concentration inhibiting HCV replicon by 50%)", "value": 11.3, "unit": "µM"},
      {"measurement": "Selectivity index (CC50/EC50)", "setting": "[1]; In vitro HCV replicon assay", "value": ">8.85"},
      {"measurement": "CC50 at 72 h", "setting": "[2]", "value": "> 100", "unit": "µM"},
      {"measurement": "CC50 at 72 h", "setting": "[3]", "value": 100, "unit": "µM"},
      {"measurement": "EC50", "setting": "[4]; Hepatitis C virus, Huh7.5, 72 h, read-out: EC50 (concentration inhibiting HCVcc infectivity by 50%)", "value": 10.2, "unit": "µM"},
      {"measurement": "Selectivity index (CC50/EC50)", "setting": "[4]; In vitro HCV cc assay", "value": 9.80},
      {"measurement": "anti-hepatitis C activity (in words)", "setting": "[4]; hepatitis C viral infectivity assay", "value": "significant anti-hepatitis C activity"}
    ]}
  ]
}
